As a reminder, the IC50 is the concentration at which inhibition is half-maximal. Read a high IC50 as weaker potency in that assay.

For test [1], the system named is HCT-8 cells. The experiment in a line: In vitro proliferating human colon adenocarcinoma (HCA) cell screen, HCT-8 cells.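 Also: ID50 is the molar concentration giving 50% growth inhibition.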 The settings on record: 60-65 hours at 37° C., value is ID50 multiplied by 10^7. In kind it is cell-based. As for the experimental part: One test protocol is the in vitro proliferating human colon adenocarcinoma (HCA) cell screen. In this test, HCT-8 cells (HCA cell line received from Yale University) are trypsinized using trypsin-EDTA. A single cell suspension is achieved by passing the cells through a 26-gauge needle with a 20-cc syringe. A cell suspension is prepared using RPMI 1640+10% FCS+50 μg/ml gentamicin sulfate with a cell concentration of approximately 5,000 cells/ml. The cell suspension is dispensed in Linbro 24-well plates; 1 ml/well. The plates are incubated for approximately 48 hours at 37° C. in a 5% CO2 atmosphere. At this time test compounds are added in the appropriate concentration. Ten μl of the appropriate dilution is added to each well for a titration test. The plates are reincubated an additional 60-65 hours at 37° C. in a 5% CO2 atmosphere. The cells are lysed using a mix of cationic surfactant, glacial acetic acid and sodium chloride. Two ml of the lysed cell suspension from each well is added to 8 ml of diluent. The number of nuclei is determined using a Coulter counter (ZBI model), and a percent growth for each drug concentration is calculated.

The test system of test [2] is Corynebacterium Sp. ATCC 21698. The experiment in a line: In vitro antibacterial (ABMF) microdilution test, Corynebacterium Sp. The test is classed as cell-based. The note with it: ATCC21698, Mueller-Hinton broth, 37° C., 16-24 hours, read-out: ABMF minimal inhibitory conc, Coryn. Species. The method in brief:
(§1)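 Susceptibility was measured by microdilution in Mueller-Hinton broth, with the organism grown against serial compound concentrations from 1000 to 0.46 micrograms per milliliter.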
On the technique in general: Broth dilution looks for growth in wells or tubes with falling amounts of substance.

Test [3] relates to lymphocytic leukemia P388. Briefly: In vivo lymphocytic leukemia P388 test. The arrangement: species or system CD2 F1 mice. The note with it: Mus musculus, P388, ip, intraperitoneal, once daily for five days, survival time treated/control, read-out: P388 in vivo T/C × 100. The method in brief: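 CD2 F1 mice (six or seven per group) received P388 leukemia cells intraperitoneally in diluted ascitic fluid, then compound i.p. once daily for five consecutive days at various doses. Survival was followed for 30 days; activity expressed as treated/control survival time ratio ×100, efficacy criterion ≥125.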

The subject of test [4] is Streptococcus pneumoniae. Briefly: In vitro antibacterial (ABMF) microdilution test, Streptococcus pneumoniae. The note with it: Mueller-Hinton broth, 37° C., 16-24 hours, read-out: ABMF minimal inhibitory conc, S. pneu. In kind it is cell-based. The method in brief: as §1
Test [5] has as its system Escherichia coli. The experiment in a line: In vitro antibacterial (ABMF) microdilution test, Escherichia coli. In kind it is cell-based. The settings on record: Mueller-Hinton broth, 37° C., 16-24 hours, read-out: ABMF minimal inhibitory conc, E. coli. The method, boiled down:
as §1

Test [6] has as its system Branhamella catarrhalis. The experiment in a line: In vitro antibacterial (ABMF) microdilution test, Branhamella catarrhalis. In kind it is cell-based. The settings on record: Moraxella catarrhalis; Mueller-Hinton broth, 37° C., 16-24 hours; read-out: ABMF minimal inhibitory conc, B. cat. The method, boiled down:
as §1

The test system of test [7] is Bacillus cereus. The experiment in a line: In vitro antibacterial (ABMF) microdilution test, Bacillus cereus. The test is classed as cell-based. The note with it: Mueller-Hinton broth, 37° C., 16-24 hours, read-out: ABMF minimal inhibitory conc, B. cer. The method in brief:
as §1

In test [8] the test system is L1210 murine leukemia cell lines. The experiment in a line: In vitro antitumor screening (PDC test), L1210 murine leukemia cell growth. The test is classed as cell-based. The settings on record: Mus musculus, 72 h; L1210 cells, 37° C., three days; value is ID50 multiplied by 10^7.

A value given as a limit tells only on which side of the number the result lay.

As to `O=c1c2ccccc2[nH]c2c([N+](=O)[O-])ccc(NCCNCCO)c12` [Example 16, 1-[[2-[(2-hydroxyethyl)amino]ethyl]amino]-4-nitro-9(10H)-acridinone, methanesulfonate (1:1), hydrate (1:1)], the IC50 in test [1] came out at 200 nM; in test [8], 330 nM. Moreover, the MIC was under 0.46 µg/mL in test [2]; 1.4 µg/mL in test [4]; 1.4 µg/mL in test [5]; under 0.46 µg/mL in test [6]; 1.4 µg/mL in test [7]. The response vs control in vivo at 25 mg/kg in test [3] came to 125%. The response vs control in vivo at 50 mg/kg in test [3] is 159%.
Take `CCN(CC)CCNc1ccc([N+](=O)[O-])c2[nH]c3ccc(OC)cc3c(=O)c12.CS(=O)(=O)O` [Example 3, 1-[[2-(Diethylamino)ethyl]amino]-7-methoxy-4-nitro-9(10H)-acridinone, methanesulfonate (1:1)]: the IC50 in test [1] came to 1100 nM; in test [8], 2400 nM. The MIC is under 0.46 µg/mL in test [2]; under 0.46 µg/mL in test [4]; 111 µg/mL in test [5]; under 0.46 µg/mL in test [6]; 4.1 µg/mL in test [7]. Further, in test [3] (12.5 mg/kg), the response vs control in vivo at 12.5 mg/kg stood at 126%. For the same compound, the response vs control in vivo at 25 mg/kg in test [3] came out at 151%. In test [3], the response vs control in vivo at 50 mg/kg is 178%. Further, the response vs control in vivo at 100 mg/kg in test [3] was 237%. In test [3], the response vs control in vivo at 200 mg/kg is 296%.
`CCOc1ccc2[nH]c3c([N+](=O)[O-])ccc(NCCNCCO)c3c(=O)c2c1.CS(=O)(=O)O` [Example 17, 7-Ethoxy-1-[[2-[(2-hydroxyethyl)amino]ethyl]amino]-4-nitro-9(10H)-acridinone, methanesulfonate]: the concentration for half-maximal inhibition (IC50) in test [1] stood at 120 nM; in test [8] it was 180 nM. The MIC was under 0.46 µg/mL in test [2]; 1.4 µg/mL in test [4]; under 0.46 µg/mL in test [5]; 1.4 µg/mL in test [6]; 4.1 µg/mL in test [7]. Further, the response vs control in vivo at 25 mg/kg in test [3] worked out at 124%. In test [3], the response vs control in vivo at 50 mg/kg turned out to be 138%.
Consider `CCOc1ccc2[nH]c3c([N+](=O)[O-])ccc(NCCN(C)C)c3c(=O)c2c1.CS(=O)(=O)O` [Example 10, 1-[[2-(Dimethylamino)ethyl]amino]-7-ethoxy-4-nitro-9(10H)-acridinone, methanesulfonate (1:1)], for which the half-maximal inhibitory concentration (IC50) in test [1] was determined as 360 nM; in test [8], 810 nM. Moreover, the MIC in test [2], in test [4], in test [5], in test [6] and in test [7] was over 1000 µg/mL throughout. The response vs control in vivo at 25 mg/kg in test [3] is 128%. Further, the response vs control in vivo at 50 mg/kg in test [3] turned out to be 162%. The response vs control in vivo at 100 mg/kg in test [3] worked out at 193%. In addition, the response vs control in vivo at 200 mg/kg in test [3] turned out to be 260%.

The record behind these values is patent publication US4626540A, “Substituted 1-amino-4-nitro-acridinones and methods of treating bacterial infections and leukemia with them” (Warner-Lambert Company, priority 1984, dated 1986).
